Legend:
[1] = target: Integrin alpha-IIb/beta-3 (Homo sapiens, UniProt P05106+P08514); assay: Dissociation constant for platelet glycoprotein alphaIIb-beta3 integrin from human platelets
Homo sapiens = organism: Homo sapiens; assay: Compound was evaluated for in vitro inhibition of ADP-induced aggregation of human platelet rich plasma; format: functional

Sequence of Integrin alpha-IIb/beta-3 (P05106 27-788 limits assumed): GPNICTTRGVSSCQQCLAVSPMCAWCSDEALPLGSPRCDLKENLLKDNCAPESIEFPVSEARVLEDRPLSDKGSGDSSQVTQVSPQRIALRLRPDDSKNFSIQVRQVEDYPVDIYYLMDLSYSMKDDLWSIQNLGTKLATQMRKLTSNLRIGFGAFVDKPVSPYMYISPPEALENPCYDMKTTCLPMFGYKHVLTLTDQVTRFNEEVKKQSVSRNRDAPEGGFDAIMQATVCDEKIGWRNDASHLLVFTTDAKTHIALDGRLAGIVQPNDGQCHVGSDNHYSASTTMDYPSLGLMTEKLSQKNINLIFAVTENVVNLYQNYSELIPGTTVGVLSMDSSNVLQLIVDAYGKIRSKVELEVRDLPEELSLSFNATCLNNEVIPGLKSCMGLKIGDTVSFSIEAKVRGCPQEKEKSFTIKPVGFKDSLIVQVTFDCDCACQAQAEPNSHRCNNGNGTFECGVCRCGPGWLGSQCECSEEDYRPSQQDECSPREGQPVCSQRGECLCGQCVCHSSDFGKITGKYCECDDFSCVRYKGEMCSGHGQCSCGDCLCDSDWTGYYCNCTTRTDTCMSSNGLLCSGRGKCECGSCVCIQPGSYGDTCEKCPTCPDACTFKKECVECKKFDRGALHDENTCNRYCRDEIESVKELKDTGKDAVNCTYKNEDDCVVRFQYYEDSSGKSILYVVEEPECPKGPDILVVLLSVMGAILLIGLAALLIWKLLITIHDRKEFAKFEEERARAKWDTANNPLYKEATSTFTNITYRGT
Sequence of Integrin alpha-IIb/beta-3 (P08514 32-887 limits assumed): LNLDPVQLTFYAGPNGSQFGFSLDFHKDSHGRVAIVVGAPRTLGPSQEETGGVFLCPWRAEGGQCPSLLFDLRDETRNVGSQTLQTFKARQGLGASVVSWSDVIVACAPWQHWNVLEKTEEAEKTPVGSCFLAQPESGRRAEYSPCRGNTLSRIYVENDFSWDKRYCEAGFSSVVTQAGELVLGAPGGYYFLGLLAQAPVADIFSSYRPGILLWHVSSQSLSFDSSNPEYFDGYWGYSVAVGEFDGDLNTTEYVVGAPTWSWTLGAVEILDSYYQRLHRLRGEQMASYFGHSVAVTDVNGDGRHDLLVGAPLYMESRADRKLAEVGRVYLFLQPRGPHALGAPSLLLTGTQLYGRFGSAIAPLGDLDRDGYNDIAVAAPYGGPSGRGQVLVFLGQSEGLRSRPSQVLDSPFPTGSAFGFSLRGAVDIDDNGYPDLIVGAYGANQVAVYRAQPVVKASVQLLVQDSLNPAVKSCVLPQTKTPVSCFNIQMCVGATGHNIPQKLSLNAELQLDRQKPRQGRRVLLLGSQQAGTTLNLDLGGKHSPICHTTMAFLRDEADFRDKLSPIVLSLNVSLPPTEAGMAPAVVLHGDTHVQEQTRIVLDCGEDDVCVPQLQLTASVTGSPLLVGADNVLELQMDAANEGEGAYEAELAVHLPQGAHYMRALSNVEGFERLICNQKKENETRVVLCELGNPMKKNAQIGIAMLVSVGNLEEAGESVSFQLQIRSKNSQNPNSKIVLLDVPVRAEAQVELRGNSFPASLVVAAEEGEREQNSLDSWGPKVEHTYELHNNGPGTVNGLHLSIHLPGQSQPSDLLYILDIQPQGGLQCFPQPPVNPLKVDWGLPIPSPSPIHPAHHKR
Sequence of Integrin alpha-IIb/beta-3 (P08514 891-1039 limits assumed): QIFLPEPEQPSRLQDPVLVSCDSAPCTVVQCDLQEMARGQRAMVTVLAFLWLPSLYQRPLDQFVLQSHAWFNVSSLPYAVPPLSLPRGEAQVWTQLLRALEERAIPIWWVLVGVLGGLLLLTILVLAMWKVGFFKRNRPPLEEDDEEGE

Compound	Ki [1] [µM]	IC50 (Homo sapiens) [µM]
CC1(C)CC(NC(=O)CBr)CC(C)(C)N1[O]	> 1000	> 200
CN(C(=O)c1ccccc1SCC(=O)NC1CC(C)(C)N([O])C(C)(C)C1)[C@@H](CCCN=C(N)N)C(=O)NCC(=O)N[C@@H](C(=O)O)C(=O)Nc1ccccc1SCC(=O)NC1CC(C)(C)N([O])C(C)(C)C1	0.11	1.02

Reference: ChEMBL document CHEMBL1151570, “Preparation and Properties of a fibrinogen receptor antagonist containing the Arg-Gly-Asp sequence and nitroxide radicals” (Bioorg Med Chem Lett, 1993)
